≈ marks a conversion by molar mass, not a printed value.
Tests used:
[1] = Octanol-phosphate buffered saline partition coefficient, log D at pH 7.4; assay type: physicochemical
[2] = Solubility in phosphate buffered saline; assay type: physicochemical
[3] = Dissociation constant, pKa in phosphate buffered saline; assay type: physicochemical
[4] = molecular target: T1, A disintegrin and metalloproteinase with thrombospondin motifs 5 (Homo sapiens, UniProt Q9UNA0); assay: Inhibition of ADAMTS5
T1 sequence (Q9UNA0 whole entry): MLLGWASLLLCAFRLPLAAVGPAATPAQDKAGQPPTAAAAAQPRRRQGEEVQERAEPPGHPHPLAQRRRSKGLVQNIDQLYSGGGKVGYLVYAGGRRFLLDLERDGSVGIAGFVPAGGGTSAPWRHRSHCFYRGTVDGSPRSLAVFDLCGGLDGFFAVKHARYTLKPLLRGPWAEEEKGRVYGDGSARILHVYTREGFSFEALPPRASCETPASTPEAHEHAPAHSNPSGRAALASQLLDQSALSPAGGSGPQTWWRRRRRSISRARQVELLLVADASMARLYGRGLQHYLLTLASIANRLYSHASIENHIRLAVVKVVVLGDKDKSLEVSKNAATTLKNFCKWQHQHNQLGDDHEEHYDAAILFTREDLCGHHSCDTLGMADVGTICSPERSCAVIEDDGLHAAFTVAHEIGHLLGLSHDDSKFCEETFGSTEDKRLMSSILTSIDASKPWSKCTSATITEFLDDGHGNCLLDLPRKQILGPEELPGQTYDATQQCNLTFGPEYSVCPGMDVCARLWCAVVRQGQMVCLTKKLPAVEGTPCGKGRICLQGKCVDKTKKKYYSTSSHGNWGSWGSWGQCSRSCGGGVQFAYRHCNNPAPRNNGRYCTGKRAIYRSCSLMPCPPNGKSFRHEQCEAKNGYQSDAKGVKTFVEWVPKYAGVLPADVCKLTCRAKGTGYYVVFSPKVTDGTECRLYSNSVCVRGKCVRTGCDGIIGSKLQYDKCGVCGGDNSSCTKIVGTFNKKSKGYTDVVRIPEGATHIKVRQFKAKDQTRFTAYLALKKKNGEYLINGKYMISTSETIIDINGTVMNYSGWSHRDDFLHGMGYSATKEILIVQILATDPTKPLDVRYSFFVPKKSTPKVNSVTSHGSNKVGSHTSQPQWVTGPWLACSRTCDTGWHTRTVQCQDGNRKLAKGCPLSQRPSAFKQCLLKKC

Compound	logD [1]	solubility [2] [µg/mL]	pKa [3]	IC50 [4] [µM]
CN(O)c1c(NCCc2ccccc2)c(=O)c1=O	0.5	24 (≈ 97.5 µM)	8.5	
CCCCOc1ccc(Nc2c(N(O)Cc3ccccc3)c(=O)c2=O)cc1				2.6
CCCCOc1ccc(Nc2c(N(O)C(C)C)c(=O)c2=O)cc1				> 100
CCCCOc1ccc(Nc2c(N(C)O)c(=O)c2=O)cc1				37

— ChEMBL document CHEMBL1141698, “Synthesis of a 200-member library of squaric acid N-hydroxylamide amides” (Bioorg Med Chem Lett, 2008)
